# Measurements: a melting point compilation (Tetko et al.; mined from patent text by program, amines drawn as free bases though some values may be those of a salt)
row,Compound,melting point [°C]
1,CCOC(=O)c1cn(Cc2ccc(Oc3ccccc3)cc2)nc1OCc1ccc(OCc2nc(-c3ccco3)oc2C)c(OC)c1,98 to 99
2,COc1ccc(CCNC(=O)C=Cc2ccc(C)cc2C)cc1S(N)(=O)=O,202
3,CCCCn1c(=O)c(NC(=O)Nc2cc(Cc3ncc[nH]3)ccc2C(C)(C)C)c(-c2cccc(O)c2)c2cccnc21,160 to 162
4,O=C(Cc1ccccn1)c1ccc2ncccc2c1,104
5,COC(=O)C1CNC(CCc2ccccc2)=N1 (racemic),136 to 141
6,CCC(Oc1ccc(C)c(C)c1)C(=O)OC1CC(O)C=C2C=CC(C)C(CCC3CC(O)CC(=O)O3)C21 (mixture of isomers),137 to 139
7,COc1ccc(CCNC(=O)N(C)O)c(OC)c1,83 to 84
8,CN1CCC(OC2c3ccccc3CCn3c2nc(I)c3I)CC1 (centres undefined),163
9,OCc1cccc(-c2nn(-c3ccc(F)cc3F)c3c2C2CCC3C2)c1 (centres undefined),113 to 115
10,NS(=O)(=O)NC(=O)NCCCCC1CCSS1 (centres undefined),123 to 125
11,Nc1nc2ccccc2c2c1ncn2CCCCNC(=O)c1ccc(C(=O)c2ccccc2)cc1,159 to 161
12,CC(O)c1ccc(-c2ccc(O)cc2)cc1 (centres undefined),159 to 160
13,CC(C)(C)OC(=O)Nc1cc(OCC#N)c(-c2ccc(F)cc2)cc1[N+](=O)[O-],148
14,CCc1cn(C2CC(OC)C(CO)O2)c(=O)[nH]c1=O (centres undefined),118 to 127
15,O=[N+]([O-])c1cccnc1N=C=S,115 to 118
16,COc1cc2c(c3c1OC(C)(C)C3)C(c1cccc(NC(=O)C(C)(C)CCl)c1)=NC(C)(C)C2,189 to 191
17,Cc1ccc2c(c1)c(CCNC(=O)c1ccccc1)c1n2C(=O)CCC1,171
18,Cn1ncc(Cl)c(NCCCN2CCC(c3noc4cc(F)ccc34)CC2)c1=O,117 to 119
19,COC(=O)C(NC(=S)n1nc(Oc2ncc(C(F)(F)F)cc2Cl)cc1C)C(C)C (centres undefined),109 to 110
20,CCCCn1c(C)c(Br)c(=O)c(C(=O)Nc2c(CC)cccc2CC)c1C,158 to 160
21,O=Cc1c[nH]c(-c2ccccc2)c1,136 to 137
22,FC(F)(F)c1cccc(-c2ccn3cnnc3n2)c1,202 to 203
23,O=[N+]([O-])c1cc(-c2ccoc2)ccc1Nc1cccc(-n2ccnc2)n1,173 to 174
24,CC(C)(C)C(O)(Cn1cncn1)C1CCCCC1 (centres undefined),100 to 102

# Other lines, results leading:
row,melting point [°C],Compound
1,208 to 210,OCC1OC(n2cnc3c(NC4CCC(O)C4)ncnc32)C(O)C1O (centres undefined)
2,137 to 138,Cc1nc(-c2cccc(Nc3ccc(I)cc3[N+](=O)[O-])c2)cs1
3,203 to 205,CNc1nc2ccc(CCc3nc4cc(C)ccn4c3C)cc2o1
4,95 to 96,CC1(C)OC(C=CC=Cc2ccc(Cl)cc2)=CC1=O
5,138 to 140,CN1CCN(CC2CCN(c3ncc4ncnc(Nc5ccc(F)c(Cl)c5)c4n3)CC2)CC1
6,76,CCOC(=O)c1c(N(C)C)cc(C)c([N+](=O)[O-])c1Cl
7,132,N#CC(F)(F)C(F)(F)C(F)(F)C(F)(F)C#N
8,134,O=C(NC1CCCCC1)N(C(=O)c1ccccc1[N+](=O)[O-])C1CCCCC1
9,141 to 143,COc1ccc(-c2nc(CN(C)c3ccccc3)nc3cc(OC)c(OC)cc23)cc1OC
10,228 to 230,COc1cc2nc(N3CCc4c(CN5CCOCC5)cccc4C3)[nH]c(=O)c2cc1OC
11,165 to 166,CN(C)c1cc2c(cc1OCc1ccccc1)CCC1C2CCC2(C)C(=O)CCC12 (centres undefined)
12,191,COc1cccc2c(=O)nc(-c3ccccn3)sc12
13,178 to 180,C#CCCOc1ccc(/C=C/C(=O)Nc2ccccc2C(=O)O)cc1OC
14,120 to 122,COc1cc2ncc(C#N)c(Nc3ccc(F)c(Cl)c3)c2cc1NC(=O)C=CCN1C(C)CCCC1C (centres undefined)
15,110 to 113,CC(=O)Oc1cccc2sc(-c3ccc(C)cc3)nc12
